In EP1170007A1, “REMEDIES” (Takara Shuzo Co, Ltd., priority 1999, dated 2000):

Assays:
mouse = experiment: Single oral dose toxicity in mouse; format: in vivo
[1] = system: human insulin-like growth factor-1 (h-IGF-1) production in Hs68 cells; experiment: Enhancement of h-IGF-1 production in Hs68 cells (ELISA); format: cell-based; conditions: Example 3-(2): 10 to 20 µM
Experimental: (1) Human newborn foreskin […] Hs68 cells (ATCC CRL-1635) were cultured in a D-MEM medium (Bio Whittaker) containing 10% fetal calf serum (FBS; Gibco BRL) in the presence of 5% CO2 at 37°C to saturation in a culture vessel. Then, the cells were suspended in the medium at a concentration of 3 x 10^5/ml using a trypsin-EDTA solution (Bio Whittaker). 200 µl of the suspension was dispensed into each well of a 96-well microtiter plate. When the cells were almost saturated in the culture vessel after culturing for 5 days, the medium was discarded and a medium containing 4HCP at a concentration of 40, 100 or 200 µM was added thereto. The culture supernatant was recovered at intervals of 24 hours for up to 96 hours. The effect of 4HCP on enhancement of human insulin-like growth factor-1 (h-IGF-1) production in Hs68 cells was determined using ELISA-Kit for h-IGF-1 (Diagnostic System Labo).
(2) Hs68 cells were cultured in a D-MEM medium containing 10% fetal calf serum in the presence of 5% CO2 at 37°C to saturation in a culture vessel. Then, the cells were suspended in the medium at a concentration of 3 x 10^5/ml using a trypsin-EDTA solution. 200 µl of the suspension was dispensed into each well of a 96-well microtiter plate. When the cells were almost saturated in the culture vessel after culturing for 5 to 7 days, the medium was discarded and the medium containing cyclopentenone or GM at a concentration of 0, 2.5, 5, 10 or 20 µM was added thereto. The culture supernatant was recovered at 1, 3, 6, 12, 24 or 48 hours. The effect of cyclopentenone or GM on the production (enhancement of expression) of h-IGF-1 in Hs68 cells was determined using ELISA-Kit for h-IGF-1. […] The amount of h-IGF-1 produced 6 hours after the addition was about twice the amount for the control with no addition. […] (3) Hs68 cells were cultured in a D-MEM medium containing 10% fetal calf serum in the presence of 5% CO2 at 37°C to saturation in a culture vessel. Then, the cells were suspended in the medium at a concentration of 3 x 10^5/ml using a trypsin-EDTA solution. 200 µl of the suspension was dispensed into each well of a 96-well microtiter plate. When the cells were almost saturated in the culture vessel after culturing for 5 to 7 days, the medium was discarded and the medium containing 4HCP, a compound of formula (XVIII) (4HCP-GSH) or glutathione (GSH) at a concentration of 0, 25, 50, 100 or 200 µM was added thereto. The culture supernatant was recovered at 1, 3, 6, 12, 24 or 48 hours. The effect on the production (enhancement of expression) of h-IGF-1 in Hs68 cells was determined using ELISA-Kit for h-IGF-1. As a result, when 4HCP was added at a concentration of 25 to 200 µM, h-IGF production in Hs68 cells became maximal at 1 hour and decreased thereafter as the time went by. […] Significant enhancement of h-IGF-1 production was observed when cultured for 10 to 30 minutes. […]

[2] = system: HGF production, MRC-5 cells; experiment: Enhancement of HGF production in MRC-5 cells (ELISA); format: cell-based, Human; conditions: 24 hours, negative control defined as 100% (7.2 ng/ml)
Experimental: MRC-5 cells (CCL171, Dainippon Pharmaceutical) were suspended in a DME medium (Bio Whittaker) containing 10% fetal calf serum at a concentration of 1 x 10^5 cells/ml. 500 µl of the suspension was placed into a 48-well cell culture plate. After culturing at 37°C in the presence of 5% CO2 for 24 hours, the medium was exchanged for a DME medium containing 1% fetal calf serum. Then, one of samples was added thereto. The plate was incubated for additional 24 hours. The medium was then recovered, and the amount of HGF in the culture medium was measured using Quantikine Human Hepatocyte Growth Factor (HGF) ELISA Kit (Funakoshi). The amount of HGF produced was expressed defining a negative control as 100%. In this case, the amount of HGF produced for the negative control was 7.2 ng/ml. Cyclopentenone (at a final concentration of 20, 40 or 160 µM), GM (at a final concentration of 20, 40, 80 or 160 µM), or dipropionylcyclopentenone (at a final concentration of 32 or 64 µM) was added as a sample. As a negative control, distilled water was added in the same volume as the sample. As a positive control, prostaglandin E1 was added at a final concentration of 0.01, 0.1, 1 or 10 µM.

[3] = system: nerve growth factor production by L-M cells; experiment: Enhancement of nerve growth factor production in L-M cells (enzyme immunoassay); format: cell-based, Rat; conditions: for Nerve growth factor concentration: 24 hours, 0 µM control 0.132
Experimental: Rat fibroblast L-M cells (ATCC CCL-1.2) were suspended in a M199 medium (Gibco) containing 0.5% Bacto Peptone (Gibco) at a concentration of 1.0 x 10^5 cells/ml. 1 ml of the suspension was inoculated into each well of a 24-well plate. The cells were cultured aseptically. After culturing for 2 days, the medium was removed and substituted with a M199 medium containing 0.5% bovine serum albumin (Sigma). Then, cyclopentenone (final concentration of 1 to 25 µM), 4HCP (Aldrich) (final concentration of 12.5µM) or dipropionylcyclopentenone (final concentration of 3.1 to 9.4 µM) was added thereto. […]
After completion of the incubation, the concentration of nerve growth factor in the culture was measured by enzyme immunoassay (NGF Emax Immuno Assay System: Promega). […]

Row | Compound | death after single oral dose (mouse; mouse, in vivo, po, 100 mg/kg) | production of h-IGF-1 in Hs68 cells (result in words) [1] | amount of h-IGF-1 produced relative to the control with no addition ([1]; 6 hours after the addition) | Increase in HGF production ([2]; 20 µM) [%] | Increase in HGF production ([2]; 40 µM) [%] | Increase in HGF production ([2]; 80 µM) [%] | Increase in HGF production ([2]; 160 µM) [%] | Nerve growth factor concentration ([3]; 3.1 µM) [ng/mL] | Nerve growth factor concentration ([3]; 6.3 µM) [ng/mL] | Nerve growth factor concentration ([3]; 9.4 µM) [ng/mL] | production of nerve growth factor by L-M cells (result in words) ([3]; 24 hours incubation) | death after single oral dose (mouse; single dose orally administered to a mouse at 100 mg/kg) | Increase in HGF production ([2]; 32 µM) [%] | Increase in HGF production ([2]; 64 µM) [%]
1 | N[C@@H](CCC(=O)N[C@@H](CSC1C=C(O)C(=O)C1)C(=O)NCC(=O)O)C(=O)O (some centres unmarked) [GM, 2-hydroxy-4-glutathion-S-yl-2-cyclopenten-1-one] | no example of death was observed | production of h-IGF in Hs68 cells was observed 3 hours after the addition | about twice | 154 | 179 | 243 | 319 |  |  |  |  |  |  | 
2 | dipropionylcyclopentenone |  |  |  |  |  |  |  | 0.164 | 0.259 | 0.257 | enhanced the production of nerve growth factor by L-M cells in a concentration-dependent manner | no example of death was observed | 120 | 144
